Test results from ChEMBL document CHEMBL3988442, “University of Dundee, Small-Polar-MMV Screening Library” (2021).

Target: Tryptophan--tRNA ligase (Mycobacterium tuberculosis (strain ATCC 25618 / H37Rv), UniProt P9WFT3)
Experiment: Biochemical assay for Mt-TrpRS
Assay type: functional

Chain of Tryptophan--tRNA ligase (P9WFT3 whole entry): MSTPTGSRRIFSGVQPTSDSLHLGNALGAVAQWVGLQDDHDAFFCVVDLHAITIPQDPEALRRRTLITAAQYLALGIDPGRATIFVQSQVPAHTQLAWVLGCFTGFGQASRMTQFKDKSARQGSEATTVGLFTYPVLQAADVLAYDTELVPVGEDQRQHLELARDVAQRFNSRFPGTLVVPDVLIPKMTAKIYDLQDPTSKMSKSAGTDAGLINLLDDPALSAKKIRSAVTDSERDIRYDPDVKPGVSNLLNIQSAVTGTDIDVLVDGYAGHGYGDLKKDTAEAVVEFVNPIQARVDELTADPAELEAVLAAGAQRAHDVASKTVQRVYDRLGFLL

SMILES | IC50 [µM]
Fc1cccc(CN2C[C@@H]3CN(c4ncccn4)C[C@@H]3C2)c1 | > 195
Cn1cncc1CN1CC[C@](C)(O)[C@@H](Oc2cccc(F)c2)C1 | > 195
Cc1nc(C2(O)CCCNCC2)sc1CCOc1ccc(F)cc1 (centres undefined) | > 195
CN(Cc1cnn(C)c1)C(=O)CN1CCCC(Cn2cncn2)C1 (centres undefined) | > 195
COc1ccccc1C1=NOC(CC2(C(=O)O)CCOCC2)C1 (centres undefined) | > 195
CC1CN(Cc2ccccc2)CCCN1CCNS(C)(=O)=O (centres undefined) | > 195
O=C1CCC(=O)N1c1nn(Cc2ccc(F)cc2)cc1Cl | > 195
Cc1nc(C(=O)NCc2ccccn2)cc(C2CCCN2)n1 (centres undefined) | > 195
Cc1noc(C)c1CN(Cc1cccs1)C1CCS(=O)(=O)C1 (centres undefined) | > 195
Cc1ncsc1C(=O)N(Cc1ccccn1)C1CC1 | > 195
CC(=O)N1CCC(Cc2cnc(C(=O)N3CCCC3)cn2)C1 (centres undefined) | > 195
CCCC1CN(CC(C)C)C(=O)c2cccnc2O1 (centres undefined) | > 195
O=C(O)c1ccccc1CN1CCOC(CCc2ccncn2)C1 (centres undefined) | > 195
O=C(c1ccc(=O)[nH]n1)N1CCNCC1c1ccccc1 (centres undefined) | > 195
Cc1cc(C)n(NC(=O)c2ccccc2F)c(=O)c1 | > 195
CCC(CC)c1nnc(NC(=O)NC(C)Cn2cccn2)s1 (centres undefined) | > 195
COc1ccc(C2Nc3cc(Cl)ccc3C3=NCCN32)cc1O (centres undefined) | > 195
CC(C)N(C)Cc1cncc2c1CCN(Cc1ccoc1)C2 | > 195
CO[C@H]1CC[C@H]2[C@H]1OCCN2C(=O)C1=CCCC1 | > 195
Cc1cccc(NCc2nc(C)ccc2O)c1 | 81.8
O=C1CN(CC2CC2)Cc2nc(NCCc3ccccn3)sc21 | > 195
COCC(O)CN1CCC(=O)N(Cc2ccco2)Cc2ccccc21 (centres undefined) | > 195
O=C(O)CCc1nc2nccc(-c3ccc(F)cc3)n2n1 | > 195
COCC(=O)N1CCOC(c2ccc(N(C)C)cn2)C1 (centres undefined) | > 195
CC(C)OCCCNC(=O)CS(=O)(=O)Cc1ccc(Cl)cc1 | > 195
c1cnc(N2CCCC(c3n[nH]c4ncccc34)C2)nc1 (centres undefined) | > 195

SMILES | IC50 [µM]
Cc1ccc(F)cc1-c1ccc(N)nc1 | > 195
CC(C)C(=O)N1CCC(C)(c2cc(O)[nH]n2)CC1 | > 195
Cn1ccc(C(=O)N2CCCC2c2[nH]ncc2C(N)=O)n1 (centres undefined) | > 195
CS(=O)(=O)c1snnc1C1CCN(Cc2cccnc2)CC1 | > 195
Cc1cn(Cc2ccc(F)c(F)c2)nc1N | > 195
O=C(C1CCCC1)N1CCC(c2n[nH]c3nccnc23)CC1 | > 195
O=C(O)C1(Cc2cccc(-c3ccc(F)cc3)c2)CCOCC1 | > 195
CCN(C(=O)c1nc2c(s1)CCCN2C)C(C)C | > 195
CC(C)C(NC(=O)C1CCCC1)c1cc(O)nc(-c2cccnc2)n1 (centres undefined) | > 195
O=C(COC[C@]12COC[C@H]1CN(C1CCC1)C2)N1CCCC1 | > 195
Cc1nn(C)c(N(C)C)c1CNCCS(C)(=O)=O | > 195
Cc1cc(CS(=O)(=O)CC(=O)N2c3ccccc3CC2C)no1 (centres undefined) | > 195
COc1c(C(=O)N2CCNC(=O)C2)cnc2c1c(C)nn2C | > 195
Cn1cc(-c2cc(C(F)(F)F)n(CCCN)n2)cn1 | > 195
O=C(c1ccccc1)N1CCO[C@@H]2CN(Cc3ccc[nH]3)C[C@@H]2C1 | > 195
COc1ccccc1OCCc1nnc(NC(=O)C2CC23CCC3)s1 (centres undefined) | > 195
c1cnc(N2CCC(c3n[nH]c4ncccc34)C2)nc1 (centres undefined) | > 195
c1cn(-c2cnc(C3CCCNC3)cn2)cn1 (centres undefined) | > 195
Nc1cnc(-c2ccc(F)cc2Cl)cn1 | > 195
Cc1cc(N2CCC(c3n[nH]c4nccnc34)CC2)ncn1 | > 195
CCS(=O)(=O)N1CCc2c(COCc3ccncc3)cncc2C1 | > 195
NC(=O)N1CCc2ncc(CNC(=O)CC3CC3)n2CC1 | > 195
CS(=O)(=O)c1nccn1Cc1ccc(F)cc1Cl | > 195
Cc1ccc(S(=O)(=O)N2CCC(O)(CN(C)C)C2)cc1 (centres undefined) | > 195
COCCN1CCC(c2cncc(N(C)C)n2)CC1 | > 195
COc1cc(CNc2cnn(CC(F)F)c2)ccc1O | > 195

SMILES | IC50 [µM]
CN1CCN(Cc2cn3c(n2)CN(Cc2ccncc2)CC3)CC1 | > 195
C[C@]1(O)CN(CCO)CC[C@@H]1Oc1cccc(F)c1 | > 195
COc1cccc(CNCc2cccnc2)c1 | > 195
CS(=O)(=O)N1CCC2(CC1)CC(NCc1ccco1)c1ccccc12 (centres undefined) | > 195
CNCC(=O)N1CCCCC1c1nccc(C)n1 (centres undefined) | > 195
CO[C@H]1CN(c2ccccc2)S(=O)(=O)[C@@]12CCN(Cc1ccccc1)C2 | > 195
Nc1cc2c(nn1)CCN(C(=O)C1CCc3ccccc31)C2 (centres undefined) | > 195
CCc1ncnc2c1CCN(CCOC)CC2 | > 195
COc1ccccc1CN1CC(O)CN(S(=O)(=O)C(C)C)CC1=O (centres undefined) | > 195
CNCc1cc(F)ccc1Oc1ccc(F)cc1 | > 195
COCCC(=O)N1CCCC(c2nc(O)cc(-c3ccncc3)n2)C1 (centres undefined) | > 195
CCC(NC(=O)c1nn(C)cc1C(=O)O)c1ccc(C)cc1C (centres undefined) | > 195
COc1cccc(C(=O)NC(c2ccccn2)[C@H]2CC[C@H](CN)CC2)c1 (some centres undefined) | > 195
COCCN1CCN(CCS(C)(=O)=O)CC1C (centres undefined) | > 195
CN1C(=O)CC(C(=O)O)C12CCN(Cc1ccc(Cl)c(F)c1)CC2 (centres undefined) | > 195
COc1c(C(=O)N2CCC(CSc3ccccc3)C2)c(C)nn1C (centres undefined) | > 195
O=c1[nH]c(-c2ccncc2)ncc1-c1ccnc(NC2CC2)n1 | > 195
OC(CNc1ccc(Cl)cn1)CN1CCOCC1 (centres undefined) | > 195
CS(=O)(=O)NC[C@]1(O)CCN(C(=O)Cc2cccs2)C[C@H]1O | > 195
CN(C)CC(=O)N1C[C@@H]2CC[C@H](Oc3ccccc3)[C@@H]2C1 | > 195
O=C(NCc1cncc2c1CCN(CC1CCOC1)C2)c1ccco1 (centres undefined) | > 195
NC(=O)CN1CCCC(Cc2ccc(N)nn2)C1 (centres undefined) | > 195
CN(C)CCn1c([C@H]2CCCO2)cc2cccnc21 | > 195
CCOCC(O)CNc1cncc(Br)c1 (centres undefined) | > 195
COc1ccc(CNc2cnn(CC(F)F)c2)cc1 | > 195
Cc1nc(Cn2c3c(ccc2=O)CC(NC(N)=O)CC3)cs1 (centres undefined) | > 195

SMILES | IC50 [µM]
Cc1cncc(C2CCN(C(=O)CCc3ccnn3C)CC2)n1 | > 195
CC(=O)c1cc2ncc(C(=O)NC3CC3)cc2[nH]1 | > 195
CSc1ccccc1C(=O)NCc1cc2n(n1)CCCN(CC(C)C)C2 | > 195
COc1ccccc1NC(=O)NCc1cn[nH]c1 | > 195
CN(Cc1nnc2n1CCC2)C(=O)c1ccc2c(c1)OCCO2 | > 195
CNC(=O)c1cnn2c(C3CCCN3C)ccnc12 (centres undefined) | > 195
COc1ccccc1CC(=O)N1CC[C@H](O)[C@]2(CCCO2)C1 | > 195
O=S(=O)(c1cccs1)N1CCCC(c2nccs2)C1 (centres undefined) | > 195
Cc1cc(CN(C)CCC(O)c2ccccc2)no1 (centres undefined) | > 195
CC(C)N(C)CC(=O)N(C)C(c1cccc(F)c1)c1ccccn1 (centres undefined) | > 195
Cc1sc2c(C3CCCN(C)C3)nc(C)n2c1C (centres undefined) | > 195
O=C1CO[C@@H]2CN(S(=O)(=O)c3ccc(F)cc3)C[C@H]2N1 | > 195
O=C(Cn1cccnc1=O)NC(Cc1ccsc1)c1nccs1 (centres undefined) | > 195
O=C(c1cccnc1Oc1ccc(Cl)cc1)N1CC[C@@H](O)C1 | > 195
CNc1nccnc1C1CCN(C(C)C)CC1 | > 195
Cc1cc(C)nc(C2CCCNC2)n1 (centres undefined) | > 195
Cn1ccc(C(=O)N2CCC(Cc3cnc4[nH]ccc4c3)C2)n1 (centres undefined) | > 195
Cc1ccc2cc(CNCCN3CCCC3)c(=O)[nH]c2c1 | > 195
CN(C)Cc1cncc2c1CCN(Cc1ccoc1)C2 | > 195
CN1CC(c2cc(O)nc(NCc3ccc(Cl)cc3)n2)CC1=O (centres undefined) | > 195
NC(=O)C1(CCCc2ccncc2)CCCN1 (centres undefined) | > 195
CN(C)[C@@H]1CN(C(=O)Cc2ccc(F)cc2)[C@@H]2CCCO[C@H]12 | > 195
O=C(NCCc1ccccc1)C1CCN(C(=O)Cn2cncn2)C1 (centres undefined) | > 195
c1csc(CN2C[C@H](OCC3CC3)[C@H]3COC[C@H]32)n1 | > 195
CC(=O)N1CCN(c2cc(CCN)nc(C3CC3)n2)CC1 | > 195
COc1ccc(CN2CC[C@H](NC(C)=O)[C@@H](O)CC2)c(F)c1 | > 195

SMILES | IC50 [µM]
CN(Cc1ccc(F)cc1)CC1(O)CCN(C(=O)c2ccncc2)C1 (centres undefined) | > 195
CNC(=O)COC1COC2(CCN(Cc3cccnc3)CC2)C1 (centres undefined) | > 195
Cc1c[nH]nc1C1CCN(C(=O)C2CCCC2)C1 (centres undefined) | > 195
CC(C)c1cc(CN2CCC(N)CC2)on1 | > 195
O=C(Cc1cccs1)N1CCC(O)(CN2CCc3ccccc3C2)C1 (centres undefined) | > 195
COC(=O)c1ccc(CNCc2ccn(C)n2)cc1 | > 195
CC(=O)N1CCCC1c1cccc(Oc2ccccc2F)n1 (centres undefined) | > 195
NC(=O)C1CCN(C(C(=O)O)c2ccc(Cl)c(C(F)(F)F)c2)CC1 (centres undefined) | > 195
CNC(=O)c1nc(CN2CCOC(C(F)(F)F)C2)no1 (centres undefined) | > 195
Cc1cc(C)c(CNC(=O)NCc2nnc3n2CCC3)c(=O)[nH]1 | > 195
Cn1cc(CN2CC[C@H](O)[C@@H](n3ccc(=O)[nH]c3=O)CC2)cn1 | > 195
CNC(=O)C1(C)CN(c2nc(C)cc(C)n2)CCO1 (centres undefined) | > 195
O=C(c1cnccn1)N1CCC2(CCCN(Cc3ccoc3)C2)C1 (centres undefined) | > 195
CN1CCO[C@@H]2CN(C(=O)NCc3ccccc3)CC[C@@H]2C1 | > 195
CNC(=O)c1cc2ccccc2n1C | > 195
COCCN(C)C(=O)c1nc2c(s1)CCCN2C | > 195
COc1ccc2c(c1)CC(NCCCn1cc(C)cn1)CC2 (centres undefined) | > 195
CCSc1ncc(Cl)c(C(=O)NC(CCSC)C(=O)O)n1 (centres undefined) | > 195
Cc1ccc(C(=O)NS(=O)(=O)c2cc(Br)ccc2C)c(=O)[nH]1 | > 195
CN(C)C(=O)N1CC[C@@H](c2ccc3ccccc3c2)[C@H](O)C1 | > 195
O[C@@]1(c2ccccn2)CC[C@H]2CN(Cc3ccccn3)C[C@H]21 | > 195
Nc1c(N2CCCC2)ncnc1N1CCOCC1 | > 195
COc1cccc(S(=O)(=O)N2C[C@@H](O)[C@H](N(C)C)C2)c1 | > 195
CC(C)c1ncc(CN2CCC(CO)C2)cn1 (centres undefined) | > 195
CN1CC(=O)c2sc(NCCc3ccccc3)nc2C1 | > 195
